We go through 23 compounds from patent US20240368120A1 (Terns Pharmaceuticals, Inc., priority 2023, published 2024).

The assay deals with T1, human GLP-1R receptor (Homo sapiens, UniProt P43220).
T1 construct: expressed in transfected cells
Put plainly: GLP-1R low expression cell assay (cAMP TR-FRET, CHO-K1_hGLP-1Rlow_clone10 cells). To be noted: for EC50: cAMP TR-FRET, 30 min at 25° C. It is filed as cell-based. The essentials:
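CHO-K1 cells stably expressing low surface human GLP-1R (clone10), 1,000 cells/well, exposed to 10-point 3-fold compound dilutions for 30 min at 25 °C. cAMP measured by TR-FRET (Eu-cAMP tracer/ULight-anti-cAMP, 15 min). EC50 from Hill fit of duplicate percent activation relative to a parallel GLP-1 control agonist.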
Background: TR-FRET usually uses a lanthanide donor and a delayed reading to cut background.

[1] abbreviates: maximum activation relative to control GLP-1 peptide agonist.

T1 sequence (P43220 24-463): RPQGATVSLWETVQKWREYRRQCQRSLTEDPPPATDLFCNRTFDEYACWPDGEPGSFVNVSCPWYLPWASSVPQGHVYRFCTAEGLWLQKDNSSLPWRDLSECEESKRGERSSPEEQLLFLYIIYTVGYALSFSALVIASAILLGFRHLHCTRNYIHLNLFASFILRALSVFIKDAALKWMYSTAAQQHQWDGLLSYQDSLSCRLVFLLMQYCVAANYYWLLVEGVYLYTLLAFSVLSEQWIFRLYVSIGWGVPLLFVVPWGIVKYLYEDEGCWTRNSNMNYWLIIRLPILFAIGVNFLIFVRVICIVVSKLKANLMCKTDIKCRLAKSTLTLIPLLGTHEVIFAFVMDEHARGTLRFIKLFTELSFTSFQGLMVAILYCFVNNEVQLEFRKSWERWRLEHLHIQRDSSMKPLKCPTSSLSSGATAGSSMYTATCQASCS

As a reminder, the EC50 is the concentration giving half of the maximal effect. Read a low EC50 as a more potent agent. For orientation: Emax means the maximal effect, on the per cent scale that the assay sets. `Cn1c(CN2CCC(c3cccc(OCc4ccc(Cl)cc4F)n3)CC2)nc2c(OC(F)F)cc(NCC(=O)O)cc21` [Compound 255, (2-((4-(6-((4-chloro-2-fluorobenzyl)oxy)pyridin-2-yl)piperidin-1-yl)methyl)-4-(difluoromethoxy)-1-methyl-1H-benzo[d]imidazol-6-yl)glycine] displayed an EC50 of 100 to 1000 nM. For the same compound, under setting [1], the Emax is 50 to 85%.

In turn, `Cn1c(CN2CCC(c3cccc(OCc4cnc(C#N)cc4F)n3)CC2)nc2c(OC(F)F)cc(C(=O)O)cc21` [Compound 350, 2-((4-(6-((6-Cyano-4-fluoropyridin-3-yl)methoxy)pyridin-2-yl)piperidin-1-yl)methyl)-4-(difluoromethoxy)-1-methyl-1H-benzo[d]imidazole-6-carboxylic acid] had an EC50 of 100 to 1000 nM. Under setting [1], the Emax is above 85%.

As to `CC(CF)Oc1cc(C(=O)O)cc2c1nc(CN1CCC(c3cccc(OCc4ccc(Cl)cc4F)n3)CC1)n2C` (single isomer, unassigned) [Compound 263], the EC50 is below 10 nM. Moreover, under setting [1], the “GLP-1R Low Expression Cell Assay Emax (%)” value is “++++ (Emax is >85%)”.

The compound `COc1c(OCc2ccc(Cl)cc2F)cccc1C1CCN(Cc2nc3c(OC(F)F)cc(C(=O)O)cc3n2C)CC1` [Compound 171, 2-((4-(3-((4-Chloro-2-fluorobenzyl)oxy)-2-methoxyphenyl)piperidin-1-yl)methyl)-4-(difluoromethoxy)-1-methyl-1H-benzo[d]imidazole-6-carboxylic acid] had an EC50 above 1000 nM. The Emax under setting [1] was below 25%.

`COc1cc(C(=O)O)cc2c1nc(CN1CCC(c3cccc(OCc4ccc(Cl)cc4F)n3)CC1)n2CF` [Compound 209, 2-((4-(6-((4-Chloro-2-fluorobenzyl)oxy)pyridin-2-yl)piperidin-1-yl)methyl)-1-(fluoromethyl)-4-methoxy-1H-benzo[d]imidazole-6-carboxylic acid] registered an EC50 of 10 to 100 nM. Further, the Emax under setting [1] is above 85%.

`COc1cc(C(=O)O)c(F)c2c1nc(CN1CCC(c3cccc(OCc4ccc(C#N)cc4F)n3)CC1)n2C[C@@H]1CCO1` [Compound 117, (S)-2-((4-(6-((4-Cyano-2-fluorobenzyl)oxy)pyridin-2-yl)piperidin-1-yl)methyl)-7-fluoro-4-methoxy-1-(oxetan-2-ylmethyl)-1H-benzo[d]imidazole-6-carboxylic acid] registered an EC50 below 10 nM. Moreover, under setting [1], the Emax was above 85%.

For the compound `CCOc1cc(C(=O)O)cc2c1nc(CN1CCC(c3cccc4c3O[C@@H](c3ccc(Cl)cc3F)CO4)CC1)n2C` [Compound 266, (S)-2-((4-(3-(4-chloro-2-fluorophenyl)-2,3-dihydrobenzo[b][1,4]dioxin-5-yl)piperidin-1-yl)methyl)-4-ethoxy-1-methyl-1H-benzo[d]imidazole-6-carboxylic acid], the EC50 was below 10 nM. The compound also had a maximal response (Emax) under setting [1] above 85%.

`O=C(O)c1ccc2nc(CN3CCC(c4cccc(OCc5ccc(Cl)cc5F)n4)CC3)[nH]c2c1OC(F)F` [Compound 210, 2-((4-(6-((4-Chloro-2-fluorobenzyl)oxy)pyridin-2-yl)piperidin-1-yl)methyl)-7-(difluoromethoxy)-1H-benzo[d]imidazole-6-carboxylic acid] had an EC50 above 1000 nM. The Emax under setting [1] was 25 to 50%.

As to `COCCn1c(CN2CCC(c3cccc(OCc4ccc(C#N)cc4F)n3)CC2)nc2c(OC(F)F)cc(C(=O)O)cc21` [Compound 106, 2-((4-(6-((4-Cyano-2-fluorobenzyl)oxy)pyridin-2-yl)piperidin-1-yl)methyl)-4-(difluoromethoxy)-1-(2-methoxyethyl)-1H-benzo[d]imidazole-6-carboxylic acid], the EC50 was below 10 nM. Further, the Emax under setting [1] is above 85%.

`Cn1c(CN2CCC(c3cccc4c3O[C@H](c3ccc(Cl)cc3F)CO4)CC2)nc2c(OC(F)F)cc(C(=O)O)cc21` [Compound 335, (R)-2-((4-(3-(4-Chloro-2-fluorophenyl)-2,3-dihydrobenzo[b][1,4]dioxin-5-yl)piperidin-1-yl)methyl)-4-(difluoromethoxy)-1-methyl-1H-benzo[d]imidazole-6-carboxylic acid]: the EC50 was above 1000 nM. For the same compound, the Emax under setting [1] lay within 50 to 85%.

`COc1cc(-c2nnn[nH]2)cc2c1nc(CN1CCC(c3cccc(OCc4ccc(Cl)cc4F)n3)CC1)n2C[C@@H]1CCO1` [Compound 279, (S)-2-((4-(6-((4-Chloro-2-fluorobenzyl)oxy)pyridin-2-yl)piperidin-1-yl)methyl)-4-methoxy-1-(oxetan-2-ylmethyl)-6-(1H-tetrazol-5-yl)-1H-benzo[d]imidazole] yielded an EC50 below 10 nM. Under setting [1], this compound came in with an Emax of 50 to 85%.

In turn, `N#Cc1ccc(COc2cccc(C3CCN(Cc4nc5ccc(C(=O)O)c6c5n4CCO6)CC3)n2)c(F)c1` [Compound 104, 2-((4-(6-((4-Cyano-2-fluorobenzyl)oxy)pyridin-2-yl)piperidin-1-yl)methyl)-3,4-dihydro-5-oxa-1,2a-diazaacenaphthylene-6-carboxylic acid] displayed an EC50 of 100 to 1000 nM. The same compound registered an Emax under setting [1] above 85%.

`CC(CO)Oc1cc(C(=O)O)cc2c1nc(CN1CCC(c3cccc(OCc4ccc(Cl)cc4F)n3)CC1)n2C` (stereo not shown) [Compound 320, 2-((4-(6-((4-Chloro-2-fluorobenzyl)oxy)pyridin-2-yl)piperidin-1-yl)methyl)-4-((1-hydroxypropan-2-yl)oxy)-1-methyl-1H-benzo[d]imidazole-6-carboxylic acid] returned an EC50 of 10 to 100 nM. In addition, the Emax under setting [1] was above 85%.

Take `CC(=O)Oc1cc(C(=O)O)cc2c1nc(CN1CCC(c3cccc(OCc4ccc(C#N)cc4F)n3)CC1)n2C` [Compound 128, 4-Acetoxy-2-((4-(6-((4-cyano-2-fluorobenzyl)oxy)pyridin-2-yl)piperidin-1-yl)methyl)-1-methyl-1H-benzo[d]imidazole-6-carboxylic acid]: the EC50 fell in the range of 10 to 100 nM. The compound also gave an Emax under setting [1] above 85%.

In turn, `COc1cc(Cl)ccc1COc1cccc(C2CCN(Cc3nc4c(OC)cc(C(=O)O)cc4n3C)CC2)n1` [Compound 348, 2-((4-(6-((4-Chloro-2-methoxybenzyl)oxy)pyridin-2-yl)piperidin-1-yl)methyl)-4-methoxy-1-methyl-1H-benzo[d]imidazole-6-carboxylic acid] had an EC50 below 10 nM. For the same compound, the Emax under setting [1] is above 85%.

Compound `C[C@]1(c2ccc(Cl)cn2)Oc2cccc(C3CCN(Cc4nc5c(O)cc(C(=O)O)cc5n4C[C@@H]4CCO4)CC3)c2O1` [Compound 92, 2-((4-((S)-2-(5-Chloropyridin-2-yl)-2-methylbenzo[d][1,3]dioxol-4-yl)piperidin-1-yl)methyl)-4-hydroxy-1-(((S)-oxetan-2-yl)methyl)-1H-benzo[d]imidazole-6-carboxylic acid] gave an EC50 below 10 nM. The compound also yielded an Emax under setting [1] above 85%.

`COc1cc(C(=O)O)cc2c1nc(CN1CCC(c3cccc4c3O[C@H](c3ccc(Cl)cc3F)CO4)CC1)n2C` [Compound 267, (R)-2-((4-(3-(4-Chloro-2-fluorophenyl)-2,3-dihydrobenzo[b][1,4]dioxin-5-yl)piperidin-1-yl)methyl)-4-methoxy-1-methyl-1H-benzo[d]imidazole-6-carboxylic acid] yielded an EC50 of 100 to 1000 nM. Under setting [1], the Emax was above 85%.

For the compound `O=C(O)c1cc(OCF)c2c(c1)nc(CN1CCC(c3cccc(OCc4ccc(Cl)cc4F)n3)CC1)n2CF` [Compound 347, 2-((4-(6-((4-Chloro-2-fluorobenzyl)oxy)pyridin-2-yl)piperidin-1-yl)methyl)-7-(fluoromethoxy)-1-(fluoromethyl)-1H-benzo[d]imidazole-5-carboxylic acid], the EC50 is above 1000 nM. Under setting [1], the Emax fell in the range of 25 to 50%.

`Cn1c(CN2CCC(c3cccc(OCc4cc(F)c(C#N)cc4F)n3)CC2)nc2c(OC(F)F)cc(C(=O)O)cc21` [Compound 366, 2-((4-(6-((4-Cyano-2,5-difluorobenzyl)oxy)pyridin-2-yl)piperidin-1-yl)methyl)-4-(difluoromethoxy)-1-methyl-1H-benzo[d]imidazole-6-carboxylic acid] came in with an EC50 below 10 nM. Further, the Emax under setting [1] is above 85%.

In turn, `Cn1c(CN2CCC(c3cccc(OCc4ccc(C#N)cc4F)n3)CC2)nc2c(N3CCOCC3)cc(C(=O)O)cc21` [Compound 112, 2-((4-(6-((4-cyano-2-fluorobenzyl)oxy)pyridin-2-yl)piperidin-1-yl)methyl)-1-methyl-4-morpholino-1H-benzo[d]imidazole-6-carboxylic acid] showed an EC50 of 100 to 1000 nM. The compound further gave an Emax under setting [1] above 85%.

In turn, `CCOc1cc(-c2cc(=O)[nH]o2)cc2c1nc(CN1CCC(c3cccc(OCc4ccc(C#N)cc4F)n3)CC1)n2C` [Compound 384, 4-(((6-(1-((4-Ethoxy-1-methyl-6-(3-oxo-2,3-dihydroisoxazol-5-yl)-1H-benzo[d]imidazol-2-yl)methyl)piperidin-4-yl)pyridin-2-yl)oxy)methyl)-3-fluorobenzonitrile] came in with an EC50 of 10 to 100 nM. Under setting [1], this compound had an Emax above 85%.

`COc1cc(C(=O)O)c(F)c2c1nc(CN1CCC(c3ccc(F)c(OCc4ccc(Cl)cc4F)c3)CC1)n2C` [Compound 340, 2-((4-(3-((4-Chloro-2-fluorobenzyl)oxy)-4-fluorophenyl)piperidin-1-yl)methyl)-7-fluoro-4-methoxy-1-methyl-1H-benzo[d]imidazole-6-carboxylic acid] had an EC50 of 10 to 100 nM. In addition, the Emax under setting [1] is above 85%.

For `[2H]C([2H])([2H])Oc1cc(C(=O)O)cc2c1nc(CN1CCC(c3cccc(OCc4ccc(C#N)cc4F)n3)CC1)n2C[C@@H]1CCO1` [Compound 108, (S)-2-((4-(6-((4-Cyano-2-fluorobenzyl)oxy)pyridin-2-yl)piperidin-1-yl)methyl)-4-(methoxy-d3)-1-(oxetan-2-ylmethyl)-1H-benzo[d]imidazole-6-carboxylic acid], the EC50 is below 10 nM. The same compound returned a maximal response (Emax) under setting [1] above 85%.
